# Source: patent publication US20230255966A1, “A COMBINATION OF A CBP/P300 BROMODOMAIN INHIBITOR AND AN EGFR INHIBITOR FOR USE IN TREATING EGFR-MUTANT NSCLC” (TOLREMO THERAPEUTICS AG, priority 2020, published 2023)
# Columns and labels:
# HCC827 cells [1] = assay: Cell counting by nuclear fluorescent staining (Hoechst33342); type: cell-based
# Protocol: Several plates were seeded, as for each time point of cell counting one plate was fixed and stained for analysis. […] Cell cultivation was continued until time of fixation and analysis for each plate. For extended time-points, medium and drugs were replenished twice weekly.
# At the given time plates were washed 3 times with PBS and cells fixed with 80 μl 4% PFA for 10 min, RT. After 3 wash steps with PBS cells were stained with 10 μg/ml Hoechst33342 (Thermo Scientific H12492) in 100 μl PBS for 2 h, RT, dark. After 3× PBS washing-steps, Hoechst33342 signals were acquired on in an automated imaging mode using a Zeiss Apotome with motorized X/Y stage and a 5× objective. Image analysis and determination of Hoechst33342 spots (nuclei) was done using ImageJ. Number of nuclei was plotted as function of time using GraphPad Prism.
# CBP bromodomain = molecular target: T1, CBP bromodomain (Homo sapiens, UniProt Q92793); assay: CBP bromodomain binding assay (TR-FRET); settings: class symbols
# T1 construct: purchased Cayman chemicals 600850
# T1 sequence (Q92793 1085-1192 limits assumed): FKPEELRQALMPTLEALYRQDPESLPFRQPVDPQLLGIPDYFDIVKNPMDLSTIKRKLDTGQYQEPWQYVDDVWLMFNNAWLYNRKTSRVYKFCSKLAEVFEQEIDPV
# Protocol: Compounds solutions of 10 mM in DMSO were pre-diluted in DSMO to 25× stock solutions in DMSO. These were then diluted down to 4× in Assay buffer. A dilution series in Assay buffer was performed keeping the DMSO concentration stable. 5 μl compound in assay buffer was transferred into the assay plate (provided by assay kit) and the TR-FRET assay Cayman chemicals; 600850) was performed using the manufactor's instructions. […] The TR-FRET ratio was calculated by dividing 670 nm emission by 620 nm emission.
# ATAD2B = molecular target: T2, ATAD2B (Homo sapiens, UniProt Q9ULI0); assay: BROMOscan BromoKdMAX; type: binding
# T2 construct: T7 phage strains displaying bromodomains were grown in parallel; purchased DiscoverX; host or cells: T7 phage in E. coli host derived from BL21
# T2 sequence (Q9ULI0 951-1066 limits assumed): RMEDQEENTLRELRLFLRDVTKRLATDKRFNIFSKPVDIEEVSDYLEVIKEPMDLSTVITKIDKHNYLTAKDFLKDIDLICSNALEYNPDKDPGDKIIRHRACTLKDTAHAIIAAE
# Protocol: (§1) A BromoKdMAX was performed at DiscoverX.
# (§2) The assay principle is the following: BROMOscan™ is a novel industry leading platform for identifying small molecule bromodomain inhibitors. Based on proven KINOMEscan™ technology, BRO-MOscan™ employs a proprietary ligand binding site-directed competition assay to quantitatively measure interactions between test compounds and bromodomains. This robust and reliable assay panel is suitable for high throughput screening and delivers quantitative ligand binding data to facilitate the identification and optimization of potent and selective small molecule bromodomain inhibitors.
# (§3) The assay was conducted as follows: For the Bromodomain assays, T7 phage strains displaying bromodomains were grown in parallel in 24-well blocks in an E. coli host derived from the BL21 strain. E. coli were grown to log-phase and infected with T7 phage from a frozen stock (multiplicity of infection=0.4) and incubated with shaking at 32° C. until lysis (90-150 minutes). The lysates were centrifuged (5,000×g) and filtered (0.2 μm) to remove cell debris. […] The liganded beads were blocked with excess biotin and washed with blocking buffer (SeaBlock (Pierce), 1% BSA, 0.05% Tween 20, 1 mM DTT) to remove unbound ligand and to reduce non-specific phage binding. […] Test compounds were prepared as 1000× stocks in 100% DMSO. Kds were determined using an 11-point 3-fold compound dilution series with one DMSO control point. […] The compounds were then diluted directly into the assays such that the final concentration of DMSO was 0.09%. All reactions performed in polypropylene 384-well plates. Each was a final volume of 0.02 ml. […] The bromodomain concentration in the eluates was measured by qPCR.
# BAZ2A = molecular target: T3, BAZ2A (Homo sapiens, UniProt Q9UIF9); assay: BROMOscan BromoKdMAX; type: binding
# T3 construct: T7 phage strains displaying bromodomains were grown in parallel; purchased DiscoverX; host or cells: T7 phage in E. coli host derived from BL21
# T3 sequence (Q9UIF9 1793-1897 limits assumed): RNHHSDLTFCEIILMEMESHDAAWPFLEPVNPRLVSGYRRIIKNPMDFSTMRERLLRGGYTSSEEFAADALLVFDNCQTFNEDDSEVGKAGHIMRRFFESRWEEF
# Protocol: as §1, §2, §3
# PBRM1(5) = molecular target: T4, PBRM1(5) (Homo sapiens, UniProt Q86U86); assay: BROMOscan BromoKdMAX; type: binding
# T4 construct: T7 phage strains displaying bromodomains were grown in parallel; purchased DiscoverX (BROMOscan / BromoKdMAX service); host or cells: T7 phage in E. coli host derived from BL21
# T4 sequence (Q86U86 653-763 limits assumed): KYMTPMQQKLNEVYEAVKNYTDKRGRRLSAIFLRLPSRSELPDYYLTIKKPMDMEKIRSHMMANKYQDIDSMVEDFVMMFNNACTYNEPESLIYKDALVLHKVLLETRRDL
# Protocol: as §1, §2, §3
# BRD1 = molecular target: T5, BRD1 (Homo sapiens, UniProt O95696); assay: BROMOscan BromoKdMAX; type: binding
# T5 construct: T7 phage strains displaying bromodomains were grown in parallel; purchased DiscoverX; host or cells: T7 phage in E. coli host derived from BL21
# T5 sequence (O95696 562-666 limits assumed): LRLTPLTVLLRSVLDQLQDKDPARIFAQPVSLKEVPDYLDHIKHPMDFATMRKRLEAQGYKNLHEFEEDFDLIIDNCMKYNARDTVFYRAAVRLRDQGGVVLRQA
# Protocol: as §1, §2, §3
# SMARCA2 = molecular target: T6, SMARCA2 (Homo sapiens, UniProt P51531); assay: BROMOscan BromoKdMAX; type: binding
# T6 construct: T7 phage strains displaying bromodomains were grown in parallel; purchased DiscoverX (BROMOscan / BromoKdMAX service); host or cells: T7 phage in E. coli host derived from BL21
# T6 sequence (P51531 1378-1506 limits assumed): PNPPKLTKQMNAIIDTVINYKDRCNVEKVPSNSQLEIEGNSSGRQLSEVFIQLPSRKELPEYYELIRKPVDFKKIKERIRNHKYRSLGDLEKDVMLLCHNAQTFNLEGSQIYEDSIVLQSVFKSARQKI
# Protocol: as §1, §2, §3
# BRPF3 = molecular target: T7, BRPF3 (Homo sapiens, UniProt Q9ULD4); assay: BROMOscan BromoKdMAX; type: binding
# T7 construct: T7 phage strains displaying bromodomains were grown in parallel; purchased DiscoverX; host or cells: T7 phage in E. coli host derived from BL21
# T7 sequence (Q9ULD4 589-693 limits assumed): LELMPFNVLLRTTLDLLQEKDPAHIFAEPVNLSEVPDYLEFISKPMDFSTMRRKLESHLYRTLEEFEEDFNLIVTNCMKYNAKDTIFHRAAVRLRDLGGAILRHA
# Protocol: as §1, §2, §3
# FALZ = molecular target: T8, FALZ (Homo sapiens, UniProt Q12830); assay: BROMOscan BromoKdMAX; type: binding
# T8 construct: T7 phage strains displaying bromodomains were grown in parallel; purchased DiscoverX (BROMOscan / BromoKdMAX service); host or cells: T7 phage in E. coli host derived from BL21
# Protocol: as §1, §2, §3
# ATAD2A = molecular target: T9, ATAD2A (Homo sapiens, UniProt Q6PL18); assay: BROMOscan BromoKdMAX; type: binding
# T9 construct: T7 phage strains displaying bromodomains were grown in parallel; purchased DiscoverX; host or cells: T7 phage in E. coli host derived from BL21
# T9 sequence (Q6PL18 980-1092 limits assumed): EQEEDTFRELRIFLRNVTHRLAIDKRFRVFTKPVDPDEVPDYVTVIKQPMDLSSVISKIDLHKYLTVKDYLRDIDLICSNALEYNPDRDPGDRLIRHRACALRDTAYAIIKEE
# Protocol: as §1, §2, §3
# SMARCA4 = molecular target: T10, SMARCA4 (Homo sapiens, UniProt P51532); assay: BROMOscan BromoKdMAX; type: binding
# T10 construct: T7 phage strains displaying bromodomains were grown in parallel; purchased DiscoverX (BROMOscan / BromoKdMAX service); host or cells: T7 phage in E. coli host derived from BL21
# T10 sequence (P51532 1453-1564 limits assumed): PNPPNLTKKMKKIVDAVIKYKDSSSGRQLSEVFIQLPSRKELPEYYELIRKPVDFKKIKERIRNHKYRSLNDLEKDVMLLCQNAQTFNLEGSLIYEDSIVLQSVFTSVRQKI
# Protocol: as §1, §2, §3
# PBRM1(2) = molecular target: T11, PBRM1(2) (Homo sapiens, UniProt Q86U86); assay: BROMOscan BromoKdMAX; type: binding
# T11 construct: T7 phage strains displaying bromodomains were grown in parallel; purchased DiscoverX (BROMOscan / BromoKdMAX service); host or cells: T7 phage in E. coli host derived from BL21
# T11 sequence (Q86U86 177-287 limits assumed): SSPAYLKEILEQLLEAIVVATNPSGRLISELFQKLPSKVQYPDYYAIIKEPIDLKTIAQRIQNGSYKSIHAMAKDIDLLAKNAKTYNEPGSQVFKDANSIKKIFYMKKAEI
# Protocol: as §1, §2, §3
# TRIM33(PHD, Bromo.) = molecular target: T12, TRIM33(PHD, Bromo.) (Homo sapiens, UniProt Q9UPN9); assay: BROMOscan BromoKdMAX; type: binding
# T12 construct: TRIM33(PHD, Bromo.)
# T12 sequence (Q9UPN9 whole entry): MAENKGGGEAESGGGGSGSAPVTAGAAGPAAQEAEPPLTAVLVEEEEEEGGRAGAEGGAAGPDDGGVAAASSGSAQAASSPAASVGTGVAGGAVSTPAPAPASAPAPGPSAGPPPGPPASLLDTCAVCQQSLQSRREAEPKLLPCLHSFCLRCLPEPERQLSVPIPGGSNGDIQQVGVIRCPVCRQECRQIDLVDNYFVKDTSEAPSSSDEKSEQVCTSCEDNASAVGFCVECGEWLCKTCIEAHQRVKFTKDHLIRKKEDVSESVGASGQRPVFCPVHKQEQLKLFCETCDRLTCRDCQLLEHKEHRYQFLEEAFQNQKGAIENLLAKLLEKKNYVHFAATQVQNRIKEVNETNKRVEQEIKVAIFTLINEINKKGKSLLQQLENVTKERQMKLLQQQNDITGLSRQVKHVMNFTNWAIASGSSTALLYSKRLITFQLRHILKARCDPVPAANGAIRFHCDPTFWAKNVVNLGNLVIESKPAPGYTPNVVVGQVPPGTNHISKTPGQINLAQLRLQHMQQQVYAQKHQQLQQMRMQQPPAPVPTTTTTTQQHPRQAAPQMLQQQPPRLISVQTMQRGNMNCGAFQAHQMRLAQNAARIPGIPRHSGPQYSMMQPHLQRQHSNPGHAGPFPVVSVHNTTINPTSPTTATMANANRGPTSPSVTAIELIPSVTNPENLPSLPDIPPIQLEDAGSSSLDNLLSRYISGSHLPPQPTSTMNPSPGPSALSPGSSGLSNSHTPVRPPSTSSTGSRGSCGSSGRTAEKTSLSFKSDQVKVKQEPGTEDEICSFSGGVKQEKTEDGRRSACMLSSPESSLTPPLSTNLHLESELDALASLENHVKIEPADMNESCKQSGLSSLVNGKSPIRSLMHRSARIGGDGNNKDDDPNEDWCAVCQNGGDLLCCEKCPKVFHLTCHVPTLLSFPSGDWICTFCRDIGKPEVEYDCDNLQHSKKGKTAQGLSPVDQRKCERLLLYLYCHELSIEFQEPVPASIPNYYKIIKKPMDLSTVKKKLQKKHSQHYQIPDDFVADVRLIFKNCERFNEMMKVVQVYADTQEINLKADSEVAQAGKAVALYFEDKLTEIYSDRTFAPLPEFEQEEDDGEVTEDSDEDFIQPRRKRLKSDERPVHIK
# Protocol: as §1, §2, §3
# BAZ2B = molecular target: T13, BAZ2B (Homo sapiens, UniProt Q9UIF8); assay: BROMOscan BromoKdMAX; type: binding
# T13 construct: T7 phage strains displaying bromodomains were grown in parallel; purchased DiscoverX; host or cells: T7 phage in E. coli host derived from BL21
# T13 sequence (Q9UIF8 2060-2164 limits assumed): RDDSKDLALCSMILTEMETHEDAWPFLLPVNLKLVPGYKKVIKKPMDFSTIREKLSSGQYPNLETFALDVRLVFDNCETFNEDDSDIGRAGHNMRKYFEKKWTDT
# Protocol: as §1, §2, §3
# GCN5L2 = molecular target: T14, GCN5L2 (Homo sapiens, UniProt Q92830); assay: BROMOscan BromoKdMAX; type: binding
# T14 construct: T7 phage strains displaying bromodomains were grown in parallel; purchased DiscoverX (BROMOscan / BromoKdMAX service); host or cells: T7 phage in E. coli host derived from BL21
# T14 sequence (Q92830 728-832 limits assumed): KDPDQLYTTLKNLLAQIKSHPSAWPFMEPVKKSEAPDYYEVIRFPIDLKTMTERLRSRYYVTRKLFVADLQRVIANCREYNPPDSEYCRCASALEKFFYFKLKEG
# Protocol: as §1, §2, §3
# HCC827 cells [2] = assay: Label-free determination of cell proliferation (CELIGO); type: cell-based; settings: HCC827, combined with 100 nM osimertinib, 21 days (FIG. 9)
# NCI-H1975 xenografts = assay: NCI-H1975 xenograft tumor growth; type: in vivo, NMRI-Nude mice
# Protocol: Tumor volume was measured using a manual caliper two to three times a week. The tumor volume was calculated using the formula: lager tumor diameter x square of the smaller tumor diameter divided by 2. Based on a linear fit of the mean tumor volumes the slopes of the curves were compared by regression analysis (two-tailed).
# (§4) The response was determined by comparing tumor volume change at time t to its baseline: % tumor volume change=ΔVolt=100%×((Vt−Vinitial)/Vinitial). The Best Response was the minimum value of ΔVolt for t≥10 d. For each time t, the average of ΔVolt from t=0 to t was also calculated. The BestAvgResponse is defined as the minimum value of this average for t≥10 d. This metric captures a combination of speed, strength and durability of response into a single value. […] Mice that were sacrificed because of an adverse event before they had completed 14 d on trial were removed from the data set.
# as §4, with “ΔVolt for t≥6 d. For” for “ΔVolt for t≥10 d. For”
# [3] = 2 mg/kg osimertinib in combination with 90 mg/kg Compound C
structure (smiles),measurement,setting,value
"CC(=O)N1C[C@H](c2nc(Nc3ccnc(C)c3)cc(-c3cccnc3)n2)CC[C@@H]1C [Compound 00071, 1-((2S,5R)-2-methyl-5-(4-((2-methylpyridin-4-yl)amino)-6-(pyridin-3-yl)pyrimidin-2-yl)piperidin-1-yl)ethan-1-one]",Effect on cell proliferation as single agent,HCC827 cells [1]; absence of EGFR inhibitor (FIG. 3 left),absence of an anti-proliferative effect
same,Anti-proliferative activity / re-growth in presence of Gefitinib,HCC827 cells [1]; in presence of 300 nM Gefitinib (FIG. 3),potentiate the effect of the EGFR inhibitor
same,EC50,CBP bromodomain,< 200 nM
"CC(=O)N1C[C@H](c2nc(Nc3cccc(-c4cn(C)nn4)c3)cc(-c3cnccn3)n2)CC[C@@H]1C [Compound C, 1-((2S,5R)-2-methyl-5-(4-((3-(1-methyl-1H-1,2,3-triazol-4-yl)phenyl)amino)-6-(pyrazin-2-yl)pyrimidin-2-yl)piperidin-1-yl)ethan-1-one]",Kd,ATAD2B,> 10 µM
same,Kd,BAZ2A,> 10 µM
same,Kd,PBRM1(5),> 10 µM
same,Kd,BRD1,> 10 µM
same,Kd,SMARCA2,> 10 µM
same,Kd,BRPF3,> 10 µM
same,Kd,FALZ,> 10 µM
same,Kd,ATAD2A,> 10 µM
same,Kd,SMARCA4,> 10 µM
same,Kd,PBRM1(2),> 10 µM
same,Kd,"TRIM33(PHD, Bromo.)",> 10 µM
same,Kd,BAZ2B,> 10 µM
same,Kd,GCN5L2,> 10 µM
same,Development of drug resistance / re-growth,HCC827 cells [2],prevent the development of drug resistance
same,Response to therapy,NCI-H1975 xenografts; [3],response to therapy is significantly increased
same,Slope of linear regression fit of mean tumor volumes over time,NCI-H1975 xenografts; [3],−7.4
same,Tumor growth (slopes of mean tumor volume curves) versus osimertinib group,"NCI-H1975 xenografts; 2 mg/kg osimertinib in combination with 90 mg/kg Compound C, daily, orally",significant difference
same,Tumor growth (slopes of mean tumor volume curves) versus vehicle,"NCI-H1975 xenografts; 90 mg/kg Compound C single agent, daily, orally",No significant difference
